test system: Chlorella vulgaris; experiment: Reproduction of green cells: chlorella cultivation, cell count at 8th day; format: cell-based; details: chlorella cell number at 8th day (192 hours); relative value, control area = 100; concentrations (ppm) as in Table 1
Procedure: (§1) In case of a unicellular organism, an individual of this organism can be used itself as a green cell. […] When chlorella is used, a test substance acting as a plant-activating agent is added to an inorganic salt medium for chlorella (test area), and the number of cells (cells/ml) when cultivation is conducted for a certain period can be compared with the number of cells (cells/ml) in the non-added system cultivated under the same condition (control area), for calculation. Further, cells in the form of callus can also be used. As the callus, a liverwort (Harchantia polymorpha L.) callus may be exemplified. When a callus is used, the test substance acting as a plant-activating agent is added to e.g. a sterilized medium for calluses (test area), and the weight of callus when cultivation is conducted for a certain period can be compared with the weight of callus of the non-added system cultivated under the same condition (control area), for calculation. In any case, the concentration of the test substance in the test area is not limited but suitably from 0.1 to 1000 ppm in terms of effective components.
Herein, the substance acting as the plant-activating agent has been added in a concentration of 10 ppm in terms of effective components into a culturing solution in the test area. This substance is not added into the control area. After sterilization, the temperature of the medium is returned to a normal temperature. The number of Chlorella vulgaris which has been sub-cultivated previously is counted under a microscope using a blood cell counting chamber of Thoma, and chlorella is added to the sterilized medium so as to have a concentration of 1.0×10^5 (cells/ml). These operations are conducted in a clean bench when the sterilized condition is necessary. Cultivation is carried out in a shaking incubator rotating at 110 rpm at 23° C. under continuous illumination (with illuminance of 10 klx.) with carbon dioxide and humidity under natural conditions.
This measurement is repeated five times in each area, and the average values (P0, P1) are made as the number of chlorella after cultivation.

Compared with `O=C([O-])CCC(=O)[O-].[Na+].[Na+]` [Comparative product 1-2, Sodium succinate, reference compound], `O=C([O-])CN(CCN(CC(=O)[O-])CC(=O)[O-])CC(=O)[O-].[Na+].[Na+].[Na+].[Na+]` [Comparative product 1-3, EDTA-4Na, reference compound] is higher in “Improved degree in reproduction of green cells” value (“Improved degree in reproduction” below): 90 for the first, 92 for the second.

Compared with `Cc1ncc(CO)c(CO)c1O` [Inventive product 1-18, Vitamin B6], “Citric acid monooleyl axnide [Inventive product 1-8]” is higher in “Improved degree in reproduction” value: 118 for the first, 148 for the second.

Going from “POE(1) stearyl ether [Inventive product 1-11]” to “POE(20) sorbitan oleate [Comparative product 1-1, reference compound]”, the “Improved degree in reproduction” value falls from 160 to 85.

“Stearic acid diglyceride [Inventive product 1-13]” and “Stearic acid monoglyceride [Inventive product 1-23]” are the same in “Improved degree in reproduction” value: 140 for the first, 140 for the second.

For Vitamin B12 [Inventive product 1-19], the “Improved degree in reproduction” value was 110.

same assay, conditions: chlorella cell number at 8th day (192 hours); relative value, control area = 100; concentrations (ppm) as in Table 2

Going from `O=C([O-])CCC(=O)[O-].[Na+].[Na+]` [Comparative product 2-2, Sodium succinate, reference compound] to `O=C([O-])CN(CCN(CC(=O)[O-])CC(=O)[O-])CC(=O)[O-].[Na+].[Na+].[Na+].[Na+]` [Comparative product 2-3, EDTA-4Na, reference compound], the “Improved degree in reproduction” value falls from 92 to 90.

First: CCCCCCCCCCCCCCCCCC(=O)O [Inventive product 2-1, Stearyl acid]
Second: Cc1ncc(CO)c(CO)c1O [Inventive product 2-16, Vitamin B6]
The “Improved degree in reproduction” value of the first is higher: 156 for the first, 122 for the second.

Going from “POE(1) stearyl ether [Inventive product 2-9]” to “POE(20) sorbitan oleate [Comparative product 2-1, reference compound]”, the “Improved degree in reproduction” value falls from 153 to 80.

First: Stearic acid diglyceride [Inventive product 2-11]
Second: Vitamin B12 [Inventive product 2-17]
The “Improved degree in reproduction” value of the first is higher: 136 for the first, 118 for the second.

test system: liverwort callus cells; experiment: Reproduction of green cells: liverwort callus cultivation, fresh weight at 10th day; format: cell-based, liverwort (Harchantia polymorpha L.); details: liverwort callus fresh weight at 10th day (240 hours); relative value, control area = 100; concentrations (ppm) as in Table 7
Procedure: as §1
100 ml of the medium (MSK2 medium) for liverworts were placed into a 500-ml Erlenmeyer flask, and the flask was capped with a silicon cap having its ventilative property and placed into an autoclave (at a high temperature, under a high pressure, and a sterilized oven) to sterilize the medium (for 20 minutes). Herein, the substance acting as the plant-activating agent was added in a concentration shown in Table 7 into a culturing solution in the test area. After sterilization, the temperature of the medium was returned to a normal temperature. 2 ml of liverwort callus cells under a steady state, which had been sub-cultivated previously, were sucked up by a 2-ml Komagome pipette (measuring pipet) and incubated to the sterilized medium. These operations are conducted in a clean bench when sterilized condition is necessary. Cultivation is carried out in a shaking incubator rotating at 110 rpm at 23° C. under continuous illumination (with illuminance of 10 klx.) with carbon dioxide and humidity under natural conditions. Tenth day (after 240 hours) after starting the cultivation, the whole culturing solution in each area was filtrated under suction, and the fresh weight (raw weight) (g) of the callus cell was measured. This was made as the amount in reproduction of green cells, and the improved degree in reproduction of green cells was measured by the above-described formula.

Going from `Cc1ncc(CO)c(CO)c1O` [Inventive product 5-18, Vitamin B6] to `CC(C)C[C@H](N)C(=O)O` [Inventive product 5-20, L-leucine], the “Improved degree in reproduction” value rises from 107 to 110.

First: O=C(O)C(O)C(O)C(=O)O (stereo not drawn) [Inventive product 5-21, Tartaric acid]
Second: O=C(O)CCCC[C@@H]1SC[C@@H]2NC(=O)N[C@@H]21 [Inventive product 5-24, Biotin]
The “Improved degree in reproduction” value of the first is higher: 110 for the first, 106 for the second.

Going from “Citric acid monostearate [Inventive product 5-7]” to “POE(1) stearyl ether [Inventive product 5-11]”, the “Improved degree in reproduction” value falls from 135 to 133.

Going from “POE(20) sorbitan oleate [Comparative product 5-1, reference compound]” to “Stearic acid diglyceride [Inventive product 5-13]”, the “Improved degree in reproduction” value rises from 72 to 126.

Compared with “Stearic acid monoglyceride [Inventive product 5-23]”, Vitamin B12 [Inventive product 5-19] is lower in “Improved degree in reproduction” value: 118 for the first, 108 for the second.
